Tests used:
[1] = system: HT-1080; assay: Cancer cell growth inhibition, HT-1080; assay type: cell-based; details: Homo sapiens; HT-1080, cell viability, 72 h
Description: (§1) Cell culture-based assays were used to evaluate the ability of compounds of the invention to inhibit cancer cell growth inhibition.
(§2) Cells were obtained from the American Type Culture Collection (ATCC) and European Collection of Cell Cultures (ECACC).
(§3) Cells were thawed in their appropriate media plus supplements (see table below). Cells were passaged at confluence by washing once in HBSS cation-free followed by a 3 minutes incubation with trypsin ([0.5 μg/ml]/EDTA [0.2 μg/ml]) (Gibco-BRL, 15400054) solution in HBSS at 37° C. (except non-adherent cell lines), and transferred to their appropriate media plus supplements. Prior to seeding at defined cell concentration, cells were recovered in medium, centrifuged and taken up in medium, and counted.
(§4) Cells were plated at 3000/5000/10000 cells/well in 100 μl media in tissue culture 96 well plates (Cultek). After 24 h, media was supplemented by 100 μl/well of diluted IPDNs at 100 μM.
(§5) The Hexosaminidase assay was used for the adherent cell lines, whereas the AlamarBlue® assay was used for the non-adherent cell lines.
(§6) Dose-response curves were generated by serial dilutions (1:1) of the compounds. […] Reagent blanks, containing media plus colorimetric reagent without cells were run on each plate. Blank values were subtracted from test values and were routinely 5-10% of uninhibited control values. Plates were incubated 72 h, and living cell number was determined by AlamarBlue® and Hexosaminidase test. The advantages of using those assays are that both can be done in the same microwell plate. AlamarBlue® assay: plates were incubated 72 h and living cell number was determined by AlamarBlue (Biosource DAL1100). After 4 h incubation at 37° C., relative fluorescent intensity, which correlates with the number of living cells, was read in a Cytofluor plate reader (Millipore) at 535/590 nm (Excitation/emission). The hexosaminidase activity was measured according to the following protocol: the media was removed and cells were washed once with PBS.
(§7) Data analysis was done by calculating the percentage of cell viability normalized in front of negative control values, which were considered as a 100%. The curve was adjusted using a sigmoidal dose-response (variable slope) equation and EC50 values were obtained from the equation
(§8) where, X is the logarithm of concentration. Y is the response. Bottom is the Y value at the bottom plateau Top is the Y value at the top plateau LogEC50 is the X value when the response is halfway between Bottom and Top. With different kinds of variables, this variable is sometimes called ED50 (effective dose, 50%), or IC50 (inhibitory concentration, 50%, used when the curve goes downhill).

[2] = system: HeLa; assay: Cancer cell growth inhibition, HeLa; assay type: cell-based; details: Homo sapiens, Cervical, cell viability, 72 h
Description: as §1, §2, §3, §4, §5
as §6, with “PBS. […]” for “PBS.”

[3] = system: MDA-MB-435; assay: Cancer cell growth inhibition, MDA-MB-435; assay type: cell-based; details: Homo sapiens; Melanoma, MDA-MB-435, cell viability, 72 h
Description: as §1, §2, §3, §4, §5, §6, §7, §8

[4] = system: Daoy; assay: Cancer cell growth inhibition, Daoy; assay type: cell-based; details: Homo sapiens, Brain, cell viability, 72 h
Description: as §1, §2, §3, §4, §5, §6, §7, §8

[5] = system: A-431; assay: Cancer cell growth inhibition, A-431; assay type: cell-based; details: Homo sapiens; Epidermoid, A-431, cell viability, 72 h
Description: as §1, §2, §3, §4, §5, §6, §7, §8

[6] = system: LnCaP; assay: Cancer cell growth inhibition, LnCaP; assay type: cell-based; details: Homo sapiens, Prostate, cell viability, 72 h
Description: as §1, §2, §3, §4, §5, §6, §7, §8

[7] = target: T1, Human DNMT1 (Homo sapiens, UniProt P26358); assay: DNMT1 enzymatic activity inhibition, radioisotope-based 3H-SAM filter binding assay; assay type: biochemical; details: 1 μM SAM, 25 nM DNMT1, 0.005 mg/ml Poly(dI-dC), 30° C. 1 hour, 10-dose
T1 construct: a-a 2-1632, with N-terminal GST tag; GST (N)
Description: The inhibition of the enzymatic activity of DNMT1 was tested using low volume radioisotope-based assay which uses tritium-labeled AdoMet (^3H-SAM) as a methyl donor. Inhibitors diluted in DMSO were added by using acoustic technology (Echo550, Labcyte Inc. Sunnyvale, Calif.) into enzyme/substrate mixture in nano-liter range. The reaction was initiated by the addition of ^3H-SAM, and incubated at 30° C. for 1 hour. Total final methylations on the substrate poly(dI-dC) were detected by a filter binding approach. Data analysis was performed using GraphPad Prism software (La Jolla, Calif.) for IC50 curve fits.

[8] = system: NCI-H1975; assay: Cancer cell growth inhibition, NCI-H1975; assay type: cell-based; details: Homo sapiens; Lung, NCI-H1975, cell viability, 72 h
Description: as §1, §2, §3, §4, §5, §6, §7, §8

[9] = system: U-87MG; assay: Cancer cell growth inhibition, U-87MG; assay type: cell-based; details: Homo sapiens, Brain, cell viability, 72 h
Description: as §1, §2, §3, §4, §5, §6, §7, §8

[10] = system: U-373MG; assay: Cancer cell growth inhibition, U-373MG; assay type: cell-based; details: Homo sapiens, U373 MG, Brain, cell viability, 72 h
Description: as §1, §2, §3, §4, §5
as §6, with “PBS. […]” for “PBS.”

[11] = system: Jurkat; assay: Cancer cell growth inhibition, Jurkat; assay type: cell-based; details: Homo sapiens, Hematologic, cell viability, 72 h
Description: as §1, §2, §3, §4, §5, §6, §7, §8

[12] = system: MCF-7; assay: Cancer cell growth inhibition, MCF-7; assay type: cell-based; details: Homo sapiens, MCF7; Breast, MCF-7, cell viability, 72 h
Description: as §1, §2, §3, §4, §5, §6, §7, §8

[13] = system: RAMOS; assay: Cancer cell growth inhibition, RAMOS; assay type: cell-based; details: Homo sapiens, Hematologic, cell viability, 72 h
Description: as §1, §2, §3, §4, §5, §6, §7, §8

[14] = system: MiaPaCa-2; assay: Cancer cell growth inhibition, MiaPaCa-2; assay type: cell-based; details: Homo sapiens, MIA PaCa-2; Pancreatic, MiaPaCa-2, cell viability, 72 h
Description: as §1, §2, §3, §4, §5, §6, §7, §8

[15] = system: SK-BR-3; assay: Cancer cell growth inhibition, SK-BR-3; assay type: cell-based; details: Homo sapiens; Breast, SK-BR-3, cell viability, 72 h
Description: as §1, §2, §3, §4, §5
as §6, with “PBS. […]” for “PBS.”

[16] = system: BxPC3; assay: Cancer cell growth inhibition, BxPC3; assay type: cell-based; details: Homo sapiens, BXPC-3; Pancreatic, BxPC3, cell viability, 72 h
Description: as §1, §2, §3, §4, §5
as §6, with “PBS. […]” for “PBS.”

[17] = system: A-549; assay: Cancer cell growth inhibition, A-549; assay type: cell-based; details: Homo sapiens, A549; Lung, A-549, cell viability, 72 h
Description: as §1, §2, §3, §4, §5, §6, §7, §8

[18] = system: CCFR-CEM; assay: Cancer cell growth inhibition, CCFR-CEM; assay type: cell-based; details: Hematologic, cell viability, 72 h
Description: as §1, §2, §3, §4, §5, §6, §7, §8

[19] = system: Panc-1; assay: Cancer cell growth inhibition, Panc-1; assay type: cell-based; details: Homo sapiens; Pancreatic, Panc-1, cell viability, 72 h
Description: as §1, §2, §3, §4, §5, §6, §7, §8

[20] = system: HCT-116; assay: Cancer cell growth inhibition, HCT-116; assay type: cell-based; details: Homo sapiens; Colorectal, HCT-116, cell viability, 72 h
Description: as §1, §2, §3, §4, §5, §6, §7, §8

[21] = system: NCI-H358; assay: Cancer cell growth inhibition, NCI-H358; assay type: cell-based; details: Homo sapiens; Lung, NCI-H358, cell viability, 72 h
Description: as §1, §2, §3, §4, §5, §6, §7, §8

T1 sequence (P26358 2-1632 isoform P26358-2): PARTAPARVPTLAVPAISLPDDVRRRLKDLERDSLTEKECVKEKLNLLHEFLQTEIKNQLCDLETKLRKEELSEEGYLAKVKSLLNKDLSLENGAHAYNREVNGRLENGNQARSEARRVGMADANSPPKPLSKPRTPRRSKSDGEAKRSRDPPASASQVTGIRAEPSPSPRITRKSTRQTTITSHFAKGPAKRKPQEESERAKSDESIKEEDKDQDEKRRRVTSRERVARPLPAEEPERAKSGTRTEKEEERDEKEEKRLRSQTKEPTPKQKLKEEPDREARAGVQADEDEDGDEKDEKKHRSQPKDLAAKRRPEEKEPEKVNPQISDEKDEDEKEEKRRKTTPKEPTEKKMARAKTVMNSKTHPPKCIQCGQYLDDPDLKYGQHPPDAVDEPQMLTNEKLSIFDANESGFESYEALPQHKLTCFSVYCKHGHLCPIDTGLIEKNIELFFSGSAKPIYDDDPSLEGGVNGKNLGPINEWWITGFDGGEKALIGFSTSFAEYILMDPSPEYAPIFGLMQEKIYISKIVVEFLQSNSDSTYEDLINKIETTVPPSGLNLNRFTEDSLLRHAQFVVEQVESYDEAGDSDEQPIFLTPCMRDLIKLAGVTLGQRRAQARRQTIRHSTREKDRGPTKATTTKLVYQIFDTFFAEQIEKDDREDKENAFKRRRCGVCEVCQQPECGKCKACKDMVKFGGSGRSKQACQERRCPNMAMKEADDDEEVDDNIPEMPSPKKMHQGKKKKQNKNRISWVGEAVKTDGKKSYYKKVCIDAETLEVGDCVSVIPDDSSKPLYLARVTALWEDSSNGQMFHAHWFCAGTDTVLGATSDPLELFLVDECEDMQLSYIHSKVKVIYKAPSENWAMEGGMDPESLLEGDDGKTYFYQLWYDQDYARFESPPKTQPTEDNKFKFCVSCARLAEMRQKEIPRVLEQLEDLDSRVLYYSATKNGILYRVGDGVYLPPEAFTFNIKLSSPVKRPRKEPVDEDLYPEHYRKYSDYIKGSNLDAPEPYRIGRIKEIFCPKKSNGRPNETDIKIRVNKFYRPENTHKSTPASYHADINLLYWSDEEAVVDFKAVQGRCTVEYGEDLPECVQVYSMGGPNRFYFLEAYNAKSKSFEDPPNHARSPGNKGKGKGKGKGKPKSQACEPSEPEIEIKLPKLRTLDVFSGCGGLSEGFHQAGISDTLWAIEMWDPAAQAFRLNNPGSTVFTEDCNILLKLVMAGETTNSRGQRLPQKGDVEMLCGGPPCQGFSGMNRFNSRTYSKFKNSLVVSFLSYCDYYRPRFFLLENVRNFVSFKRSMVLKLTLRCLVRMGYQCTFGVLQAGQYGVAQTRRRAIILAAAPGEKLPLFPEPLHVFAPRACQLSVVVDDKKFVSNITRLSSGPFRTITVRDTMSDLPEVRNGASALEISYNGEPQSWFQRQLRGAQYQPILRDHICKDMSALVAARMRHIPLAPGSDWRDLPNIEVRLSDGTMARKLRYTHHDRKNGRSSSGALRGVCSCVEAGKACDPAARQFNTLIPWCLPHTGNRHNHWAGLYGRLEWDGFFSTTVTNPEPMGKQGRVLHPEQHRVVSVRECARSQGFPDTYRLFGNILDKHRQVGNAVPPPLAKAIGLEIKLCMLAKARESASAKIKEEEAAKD

How did the EC50 [1] turn out when `COc1ccc2c(-c3ccc(O)c(O)c3)cn(CC(=O)c3ccc(O)c(O)c3)c2c1` [Example 4, 1-(3,4-dihydroxyphenyl)-2-[3-(3,4-dihydroxyphenyl)-6-methoxy-1H-indol-1-yl]ethanone] was run?
Its EC50 is 31 µM.

What about the EC50 [2] of the same compound?
The EC50 was 36 µM.

What about the EC50 [3] of the same compound?
Its EC50 is 14 µM.

And the EC50 [4]?
Its EC50 is 47 µM.

What about the EC50 [5] of the same compound?
The EC50 was 30 µM.

What about the EC50 [6] of the same compound?
Its EC50 is 28 µM.

What about the IC50 [7] of the same compound?
The IC50 was 13.8 µM.

And the EC50 [8]?
The EC50 was 46 µM.

And the EC50 [9]?
Its EC50 is 20 µM.

What about the EC50 [10] of the same compound?
Its EC50 is 21 µM.

And the EC50 [11]?
The EC50 was 24 µM.

What about the EC50 [12] of the same compound?
The EC50 was 30 µM.

And the EC50 [13]?
Its EC50 is 51 µM.

What about the EC50 [14] of the same compound?
The EC50 was 66 µM.

What about the EC50 [15] of the same compound?
The EC50 was 20 µM.

What about the EC50 [16] of the same compound?
Its EC50 is 53 µM.

What about the EC50 [17] of the same compound?
Its EC50 is 97 µM.

And the EC50 [18]?
The EC50 was 45 µM.

And the EC50 [19]?
Its EC50 is 27 µM.

And the EC50 [20]?
The EC50 was 51 µM.

What about the EC50 [21] of the same compound?
The EC50 was 11 µM.
